How the values were obtained:
SF-268 = test: Growth inhibition of human SF268 cells after 48 hrs by sulforhodamine B assay; type: functional; conditions: SF-268, 48 h
NCI-H522 = test: Growth inhibition of human NCI-H522 cells assessed as cell growth at 10 uM after 48 hrs by sulforhodamine B assay relative to control; type: functional; conditions: NCI-H522, 48 h, read-out: Activity
SW-620 = test: Growth inhibition of human SW620 cells assessed as cell growth at 10 uM after 48 hrs by sulforhodamine B assay relative to control; type: functional; conditions: SW-620, 48 h, read-out: Activity
SK-MEL-5 [1] = test: Growth inhibition of human SK-MEL-5 cells after 48 hrs by sulforhodamine B assay; type: functional; conditions: SK-MEL-5, 48 h
DU-145 = test: Growth inhibition of human DU145 cells assessed as cell growth at 10 uM after 48 hrs by sulforhodamine B assay relative to control; type: functional; conditions: DU-145, 48 h, read-out: Activity
OVCAR-4 = test: Growth inhibition of human OVCAR4 cells after 48 hrs by sulforhodamine B assay; type: functional; conditions: OVCAR-4, 48 h
LOX IMVI = test: Growth inhibition of human LOXIMVI cells assessed as cell growth at 10 uM after 48 hrs by sulforhodamine B assay relative to control; type: functional; conditions: read-out: Activity
[2] = Growth inhibition of human Hs 578T cells assessed as cell growth at 10 uM after 48 hrs by sulforhodamine B assay relative to control; type: functional; conditions: read-out: Activity
MCF7 [3] = test: Growth inhibition of human MCF7 cells after 48 hrs by sulforhodamine B assay; type: functional; conditions: MCF7, 48 h; for CC50: read-out: LC50 (the source's name)
HCT-15 = test: Growth inhibition of human HCT15 cells assessed as cell growth at 10 uM after 48 hrs by sulforhodamine B assay relative to control; type: functional; conditions: HCT-15, 48 h, read-out: Activity
SK-MEL-5 [4] = test: Growth inhibition of human SK-MEL-5 cells assessed as cell growth at 10 uM after 48 hrs by sulforhodamine B assay relative to control; type: functional; conditions: SK-MEL-5, 48 h, read-out: Activity
SK-MEL-28 = test: Growth inhibition of human SK-MEL-28 cells assessed as cell growth at 10 uM after 48 hrs by sulforhodamine B assay relative to control; type: functional; conditions: SK-MEL-28, 48 h, read-out: Activity
NCI-H23 = test: Growth inhibition of human NCI-H23 cells assessed as cell growth at 10 uM after 48 hrs by sulforhodamine B assay relative to control; type: functional; conditions: NCI-H23, 48 h, read-out: Activity
RPMI-8226 = test: Growth inhibition of human RPMI8226 cells assessed as cell growth at 10 uM after 48 hrs by sulforhodamine B assay relative to control; type: functional; conditions: RPMI-8226, 48 h, read-out: Activity
MDA-MB-231 = test: Growth inhibition of human MDA-MB-231 cells after 48 hrs by sulforhodamine B assay; type: functional; conditions: MDA-MB-231, 48 h; for CC50: read-out: LC50 (the source's name)
MOLT-4 = test: Growth inhibition of human MOLT4 cells assessed as cell growth at 10 uM after 48 hrs by sulforhodamine B assay relative to control; type: functional; conditions: MOLT-4, 48 h, read-out: Activity
SF-295 = test: Growth inhibition of human SF295 cells assessed as cell growth at 10 uM after 48 hrs by sulforhodamine B assay relative to control; type: functional; conditions: SF-295, 48 h, read-out: Activity
U-251 = test: Growth inhibition of human U251 cells assessed as cell growth at 10 uM after 48 hrs by sulforhodamine B assay relative to control; type: functional; conditions: U-251, 48 h, read-out: Activity
PC-3 [5] = test: Growth inhibition of human PC3 cells after 48 hrs by sulforhodamine B assay; type: functional; conditions: PC-3, 48 h
MCF7 [6] = test: Growth inhibition of human MCF7 cells assessed as cell growth at 10 uM after 48 hrs by sulforhodamine B assay relative to control; type: functional; conditions: MCF7, 48 h, read-out: Activity
HCT-116 = test: Growth inhibition of human HCT116 cells assessed as cell growth at 10 uM after 48 hrs by sulforhodamine B assay relative to control; type: functional; conditions: HCT-116, 48 h, read-out: Activity
OVCAR-3 = test: Growth inhibition of human OVCAR3 cells assessed as cell growth at 10 uM after 48 hrs by sulforhodamine B assay relative to control; type: functional; conditions: OVCAR-3, 48 h, read-out: Activity
MDA-MB-435 = test: Growth inhibition of human MDA-MB-435 cells assessed as cell growth at 10 uM after 48 hrs by sulforhodamine B assay relative to control; type: functional; conditions: MDA-MB-435, 48 h, read-out: Activity
OVCAR-8 [7] = test: Growth inhibition of human OVCAR8 cells assessed as cell growth at 10 uM after 48 hrs by sulforhodamine B assay relative to control; type: functional; conditions: OVCAR-8, 48 h, read-out: Activity
TK-10 = test: Growth inhibition of human TK10 cells assessed as cell growth at 10 uM after 48 hrs by sulforhodamine B assay relative to control; type: functional; conditions: TK-10, 48 h, read-out: Activity
OVCAR-5 = test: Growth inhibition of human OVCAR5 cells assessed as cell growth at 10 uM after 48 hrs by sulforhodamine B assay relative to control; type: functional; conditions: OVCAR-5, 48 h, read-out: Activity
M14 = test: Growth inhibition of human M14 cells after 48 hrs by sulforhodamine B assay; type: functional; conditions: M14, 48 h; for CC50: read-out: LC50 (the source's name)
MT4 = test: Cytotoxicity against human MT4 cells; type: functional, cell-based
SNB-75 = test: Growth inhibition of human SNB75 cells assessed as cell growth at 10 uM after 48 hrs by sulforhodamine B assay relative to control; type: functional; conditions: SNB-75, 48 h, read-out: Activity
OVCAR-8 [8] = test: Growth inhibition of human OVCAR8 cells after 48 hrs by sulforhodamine B assay; type: functional; conditions: OVCAR-8, 48 h
PC-3 [9] = test: Growth inhibition of human PC3 cells assessed as cell growth at 10 uM after 48 hrs by sulforhodamine B assay relative to control; type: functional; conditions: PC-3, 48 h, read-out: Activity
UACC-62 = test: Growth inhibition of human UACC62 cells assessed as cell growth at 10 uM after 48 hrs by sulforhodamine B assay relative to control; type: functional; conditions: UACC-62, 48 h, read-out: Activity
RXF 393 = test: Growth inhibition of human RXF393 cells after 48 hrs by sulforhodamine B assay; type: functional; conditions: RXF 393, 48 h; for CC50: read-out: LC50 (the source's name)
[10] = Growth inhibition of human NCI-ADR-RES cells after 48 hrs by sulforhodamine B assay; type: functional; conditions: for CC50: read-out: LC50 (the source's name)
[11] = read-out: LC50 (the source's name)

CN(C)CCNc1nc2c(c(=N)n1-c1ccccc1)c(=S)n(-c1ccccc1)c(=S)n2-c1ccccc1
GI50 (SF-268): 4.1 µM
LC50 (SF-268): 45.6 µM
TGI (SF-268): 15.3 µM
growth at 10 µM (NCI-H522): 3.16%
growth at 10 µM (SW-620): -59.1%
GI50 (SK-MEL-5 [1]): 1.6 µM
LC50 (SK-MEL-5 [1]): 6.1 µM
TGI (SK-MEL-5 [1]): 3.1 µM
growth at 10 µM (DU-145): 45%
GI50 (OVCAR-4): 3.1 µM
TGI (OVCAR-4): 10.8 µM
growth at 10 µM (LOX IMVI): -61.4%
growth at 10 µM [2]: 12.3%
GI50 (MCF7 [3]): 2.2 µM
TGI (MCF7 [3]): 10.9 µM
CC50 (MCF7 [3]): 48.8 µM
growth at 10 µM (HCT-15): 18.8%
growth at 10 µM (SK-MEL-5 [4]): -98.8%
growth at 10 µM (SK-MEL-28): -100%
growth at 10 µM (NCI-H23): 67.6%
growth at 10 µM (RPMI-8226): -4.62%
GI50 (MDA-MB-231): 1.8 µM
TGI (MDA-MB-231): 5.6 µM
CC50 (MDA-MB-231): 24.7 µM
growth at 10 µM (MOLT-4): 3.92%
growth at 10 µM (SF-295): -61.5%
growth at 10 µM (U-251): 2.1%
GI50 (PC-3 [5]): 4 µM
LC50 (50% lethal concentration) (PC-3 [5]): 51.9 µM
TGI (PC-3 [5]): 17.9 µM
growth at 10 µM (MCF7 [6]): 17.9%
growth at 10 µM (HCT-116): -22.1%
growth at 10 µM (OVCAR-3): -48.7%
growth at 10 µM (MDA-MB-435): -64.5%
growth at 10 µM (OVCAR-8 [7]): 33.6%
growth at 10 µM (TK-10): 47.7%
growth at 10 µM (OVCAR-5): 63.1%
GI50 (M14): 1.8 µM
TGI (M14): 4.3 µM
CC50 (M14): 89.1 µM
IC50 (MT4): 8.4 µM
growth at 10 µM (SNB-75): 79%
GI50 (OVCAR-8 [8]): 4.1 µM
TGI (OVCAR-8 [8]): 15.7 µM
CC50 (OVCAR-8 [8]; [11]): 58.7 µM
growth at 10 µM (PC-3 [9]): 31%
growth at 10 µM (UACC-62): -90.3%
GI50 (RXF 393): 1.2 µM
TGI (RXF 393): 3.1 µM
CC50 (RXF 393): 8.1 µM
GI50 [10]: 10.5 µM
TGI [10]: 31 µM
CC50 [10]: 91 µM

CCCCN(CCCC)CCCNc1nc2c(c(=N)n1-c1ccccc1)c(=S)n(-c1ccccc1)c(=S)n2-c1ccccc1
GI50 (SF-268): 1 µM
LC50 (SF-268): 4.7 µM
TGI (SF-268): 2.2 µM
growth at 10 µM (NCI-H522): -54.8%
growth at 10 µM (SW-620): -100%
GI50 (SK-MEL-5 [1]): 0.9 µM
LC50 (SK-MEL-5 [1]): 4.6 µM
TGI (SK-MEL-5 [1]): 2.1 µM
growth at 10 µM (DU-145): -100%
GI50 (OVCAR-4): 0.6 µM
TGI (OVCAR-4): 1.9 µM
CC50 (OVCAR-4; [11]): 4.4 µM
growth at 10 µM (LOX IMVI): -89.7%
growth at 10 µM [2]: -64.6%
GI50 (MCF7 [3]): 0.3 µM
TGI (MCF7 [3]): 1.3 µM
CC50 (MCF7 [3]): 3.6 µM
growth at 10 µM (HCT-15): -73.3%
growth at 10 µM (SK-MEL-5 [4]): -100%
growth at 10 µM (SK-MEL-28): -100%
growth at 10 µM (NCI-H23): -56.3%
growth at 10 µM (RPMI-8226): -53.4%
GI50 (MDA-MB-231): 0.3 µM
TGI (MDA-MB-231): 0.9 µM
CC50 (MDA-MB-231): 3 µM
growth at 10 µM (MOLT-4): -55.8%
growth at 10 µM (SF-295): -100%
growth at 10 µM (U-251): -100%
GI50 (PC-3 [5]): 0.6 µM
LC50 (50% lethal concentration) (PC-3 [5]): 4.6 µM
TGI (PC-3 [5]): 1.9 µM
growth at 10 µM (MCF7 [6]): -88%
growth at 10 µM (HCT-116): -25%
growth at 10 µM (OVCAR-3): -100%
growth at 10 µM (MDA-MB-435): -100%
growth at 10 µM (OVCAR-8 [7]): -36.1%
growth at 10 µM (TK-10): -89.6%
growth at 10 µM (OVCAR-5): -60.2%
GI50 (M14): 0.2 µM
TGI (M14): 0.4 µM
CC50 (M14): 0.8 µM
IC50 (MT4): 1.6 µM
growth at 10 µM (SNB-75): -94.2%
GI50 (OVCAR-8 [8]): 0.9 µM
TGI (OVCAR-8 [8]): 2.7 µM
growth at 10 µM (PC-3 [9]): -70.8%
growth at 10 µM (UACC-62): -99.4%
GI50 (RXF 393): 0.2 µM
TGI (RXF 393): 0.5 µM
CC50 (RXF 393): 36.8 µM
GI50 [10]: 1.6 µM
TGI [10]: 3.3 µM
CC50 [10]: 8.1 µM

From ChEMBL document CHEMBL2440027, “Further SAR studies on bicyclic basic merbarone analogues as potent antiproliferative agents” (Bioorg Med Chem, 2013)
